Assay results as given in patent EP2997966A1, “Naphthyl Sulfonamide Pyrrolidine Derivatives as KEAP-1 Modulators for the Treatment of Diabetes, Obesity, Dyslipidemia and Related Disorders” (SANOFI, priority 2014, dated 2016).
Like-named read-outs stand apart in the source and are kept apart here.

Biological target: T1, human Keap1 kelch domain (amino acids Ala321-Thr609) (Homo sapiens, UniProt Q14145)
T1 construct: human Keap1 kelch domain (amino acids Ala321-Thr609)
Experiment: Keap1-Nrf2 peptide binding assay (fluorescence polarisation)
Conditions: binding to fluorescently labeled human Nrf2 peptide, 20 nM Keap1 kelch domain, 50 nM peptide
Method: Keap1-Nrf2 peptide binding assay
Two microliters of test compound in reaction buffer (phosphate-buffered saline, 2 mM DL-dithiothreitol, 0.015 % (v/v) Brij-35) containing 6 % (v/v) DMSO were mixed with two microliters of the Keap1 kelch domain in reaction buffer in a black 384-well small volume microtiter plate and incubated at ambient temperature for 15 minutes. Thereafter, two microliters were added of the fluorescently labeled Nrf2 peptide in reaction buffer, and the mixture was incubated for a further 30 minutes at ambient temperature. Final concentrations of the Keap1 kelch domain and the fluorescently labeled Nrf2 peptide were 20 nM and 50 nM, respectively.
Fluorescence polarization (FP) was measured at excitation and emission wavelengths of 635 nm and 660 nm, respectively. Positive controls for binding (two microliters of reaction buffer containing 6 % (v/v) DMSO instead of test compound in the same buffer) and negative controls (as positive controls, but without Keap1 kelch domain) were included on each microtiter plate.

T1 sequence (Q14145 321-609): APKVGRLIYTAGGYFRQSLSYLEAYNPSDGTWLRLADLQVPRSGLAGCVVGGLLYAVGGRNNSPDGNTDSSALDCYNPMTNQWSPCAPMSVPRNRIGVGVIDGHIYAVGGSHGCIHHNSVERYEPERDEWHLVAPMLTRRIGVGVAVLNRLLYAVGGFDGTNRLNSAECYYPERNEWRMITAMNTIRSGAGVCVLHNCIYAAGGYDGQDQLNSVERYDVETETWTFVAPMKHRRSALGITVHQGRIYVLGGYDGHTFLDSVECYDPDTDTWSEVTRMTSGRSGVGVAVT

Row | IC50 (read-out: IC50) [nM] | Structure (SMILES) | IC50 [nM]
1 | 500 | Cn1ccc2c(S(=O)(=O)Nc3ccc(N4CC[C@@H](C(=O)O)C4)c4ccccc34)cccc21 [Example 64, (3R)-1-[4-[(1-methylindol-4-yl)sulfonylamino]-1-naphthyl]pyrrolidine-3-carboxylic acid] | –
2 | 400 | Cc1c(S(=O)(=O)Nc2ccc(N3CC[C@@H](C(=O)O)C3)c3ncccc23)sc2ccc(Cl)cc12 [Example 72, (3R)-1-[5-[(5-chloro-3-methyl-benzothiophen-2-yl)sulfonylamino]-8-quinolyl]pyrrolidine-3-carboxylic acid] | –
3 | 130 | Cc1c(S(=O)(=O)Nc2ccc(N3CC[C@@H](C(=O)O)C3)c3ccccc23)sc2cccc(F)c12 [Example 60, (3R)-1-[4-[(4-fluoro-3-methyl-benzothiophen-2-yl)sulfonylamino]-1-naphthyl]pyrrolidine-3-carboxylic acid] | –
4 | – | Cc1cc(C)c(C)c(S(=O)(=O)Nc2ccc(N3CCCC(C(=O)O)C3)c3ncccc23)c1C (stereo not shown) [Example 15, 1-[5-[(2,3,5,6-tetramethylphenyl)sulfonylamino]-8-quinolyl]piperidine-3-carboxylic acid; 2,2,2-trifluoroacetic acid] | 24000
5 | 600 | Cc1cc(C)c(C)c(S(=O)(=O)Nc2ccc(C3=CCC(C(=O)O)CC3)c3ccccc23)c1C (stereo not shown) [Example 57, 4-[4-[(2,3,5,6-tetramethylphenyl)sulfonylamino]-1-naphthyl]cyclohex-3-ene-1-carboxylic acid] | –
6 | – | O=C(O)[C@@H]1CCN(c2ccc(NS(=O)(=O)c3cc(F)c(F)cc3Cl)c3ccccc23)C1 [Example 45, (3R)-1-[4-[(2-chloro-4,5-difluorophenyl)sulfonylamino]-1-naphthyl]pyrrolidine-3-carboxylic acid] | 4500
7 | 7000 | Cc1c(S(=O)(=O)Nc2ccc(N3CC[C@H](C(=O)O)C3)c3ccccc23)cnn1CC(C)C [Example 29, (3S)-1-[4-[(1-isobutyl-5-methyl-pyrazol-4-yl)sulfonylamino]-1-naphthyl]pyrrolidine-3-carboxylic acid] | –
8 | 5000 | O=C(O)[C@@H]1CCN(c2ccc(NS(=O)(=O)c3ccc(Cl)c(C(F)(F)F)c3)c3ccccc23)C1 [Example 40, (3R)-1-[4-[[4-chloro-3-(trifluoromethyl)phenyl]sulfonylamino]-1-naphthyl]pyrrolidine-3-carboxylic acid] | –
9 | 800 | Cc1c(Cl)cccc1S(=O)(=O)Nc1ccc(N2CC[C@@H](C(=O)O)C2)c2ccccc12 [Example 32, (3R)-1-[4-[(3-chloro-2-methylphenyl)sulfonylamino]-1-naphthyl]pyrrolidine-3-carboxylic acid] | –
10 | 1900 | CC(=O)Nc1nc(C)c(S(=O)(=O)Nc2ccc(N3CC[C@@H](C(=O)O)C3)c3ccccc23)s1 [Example 31, (3R)-1-[4-[(2-acetamido-4-methyl-thiazol-5-yl)sulfonylamino]-1-naphthyl]pyrrolidine-3-carboxylic acid] | –
11 | – | Cc1ccc(Cl)cc1S(=O)(=O)Nc1ccc(N2CC[C@H](C(=O)O)C2)c2ccccc12 [Example 26, (3S)-1-[4-[(5-chloro-2-methylphenyl)sulfonylamino]-1-naphthyl]pyrrolidine-3-carboxylic acid] | 8100
12 | 9000 | O=C(O)[C@H]1CCN(c2ccc(NS(=O)(=O)c3cc(Cl)sc3Cl)c3ccccc23)C1 [Example 18, (3S)-1-[4-[(2,5-dichloro-3-thienyl)sulfonylamino]-1-naphthyl]pyrrolidine-3-carboxylic acid] | –
13 | 6500 | Cc1c(S(=O)(=O)Nc2ccc(N3CC[C@@H](C(=O)O)C3)c3ccccc23)cnn1-c1ccccc1 [Example 39, (3R)-1-[4-[(5-methyl-1-phenyl-pyrazol-4-yl)sulfonylamino]-1-naphthyl]pyrrolidine-3-carboxylic acid] | –
14 | 2300 | CCCCn1cc(S(=O)(=O)Nc2ccc(N3CC[C@@H](C(=O)O)C3)c3ccccc23)c(C)n1 [Example 13, (3R)-1-[4-[(1-butyl-3-methyl-pyrazol-4-yl)sulfonylamino]-1-naphthyl]pyrrolidine-3-carboxylic acid] | –
15 | – | O=C(O)[C@H]1CCN(c2ccc(NS(=O)(=O)c3cccc(Cl)c3Cl)c3ccccc23)C1 [Example 20, (3S)-1-[4-[(2,3-dichlorophenyl)sulfonylamino]-1-naphthyl]pyrrolidine-3-carboxylic acid] | 8600
16 | 500 | Cc1cc(C)c(C)c(S(=O)(=O)Nc2ccc(N3CCCC(C(=O)O)C3)c3ccccc23)c1C (stereo not shown) [Example 5, 1-[4-[(2,3,5,6-tetramethylphenyl)sulfonylamino]-1-naphthyl]piperidine-3-carboxylic acid; 2,2,2-trifluoroacetic acid] | –
17 | 3100 | Cc1cc(C)c(C)c(S(=O)(=O)Nc2ccc(C3CCCC3C(=O)O)c3ccccc23)c1C (stereo not shown) [Example 1, 2-[4-[(2,3,5,6-tetramethylphenyl)sulfonylamino]-1-naphthyl]cyclopentanecarboxylic acid] | –
18 | 2800 | Cc1c(S(=O)(=O)Nc2ccc(N3CC[C@@H](C(=O)O)C3)c3ccccc23)cnn1C1CCCC1 [Example 50, (3R)-1-[4-[(1-cyclopentyl-5-methyl-pyrazol-4-yl)sulfonylamino]-1-naphthyl]pyrrolidine-3-carboxylic acid] | –
19 | 4100 | Cc1c(S(=O)(=O)Nc2ccc(N3CC[C@H](C(=O)O)C3)c3ccccc23)cnn1C1CCCC1 [Example 30, (3S)-1-[4-[(1-cyclopentyl-5-methyl-pyrazol-4-yl)sulfonylamino]-1-naphthyl]pyrrolidine-3-carboxylic acid] | –
20 | 260 | Cc1c(S(=O)(=O)Nc2ccc(N3CC[C@@H](C(=O)O)C3)c3ccccc23)c2ccccc2n1C [Example 63, (3R)-1-[4-[(1,2-dimethylindol-3-yl)sulfonylamino]-1-naphthyl]pyrrolidine-3-carboxylic acid] | –
21 | 6200 | O=C(O)[C@H]1CCN(c2ccc(NS(=O)(=O)c3ccc(Cl)cc3Cl)c3ccccc23)C1 [Example 19, (3S)-1-[4-[(2,4-dichlorophenyl)sulfonylamino]-1-naphthyl]pyrrolidine-3-carboxylic acid] | –
22 | 270 | Cc1cc(C)c(C)c(S(=O)(=O)Nc2ccc(N3CCC[C@@H](C(=O)O)C3)c3ccccc23)c1C [Example 58, (3R)-1-[4-[(2,3,5,6-tetramethylphenyl)sulfonylamino]-1-naphthyl]piperidine-3-carboxylic acid] | –
